Data as given in US20120252741A1, “NOVEL SEMI-SYNTHETIC GLYCOPEPTIDES AS ANTIBACTERIAL AGENTS” (priority 2008, published 2012).
≈ marks a conversion by molar mass, not a printed value. Read-outs that look alike come from different tables or passages of the source.

How the values were obtained:
Assay type in all cases: cell-based
[1] = test system: Staphylococcus epidermidis 835; experiment: MIC, broth microdilution, SE 835; details: Staphylococcus epidermidis, 835, class symbols, read-out: MIC SE 835
Procedure: (§1) Antibacterial activity in vitro is investigated by broth microdilution method in Meuller-Hinton broth as recommended by NCCLS. All strains tested are clinical isolates either sensitive or resistant to natural glycopeptides. MIC values were determined using the CLSI-recommended broth microdilution procedure (Clinical and Laboratory Standards Institute, Methods for Dilution Antimicrobial Susceptibility Tests for Bacteria That Grow Aerobically; Approved Standard-Seventh Edition.). Automated liquid handlers (Multidrop 384, Labsystems, Helsinki, Finland; Biomek 2000 and Multimek 96, Beckman Coulter, Fullerton Calif.) were used to conduct serial dilutions and liquid transfers. The MIC value for vancomycin is given for comparison. The abbreviations for organisms tested are as follow: SA 100—Staphylococcus aureus 100 (ATCC 29213); SA 757—Staphylococcus aureus 757 (MRSA); SA 2012—Staphylococcus aureus 2012 (VISA); SE 835—Staphylococcus epidermidis 835; SE 831—Staphylococcus epidermidis 831 (MRSE); EFc 101—Enterococcus faecalis 101 (ATCC 29212); EFc 848—Enterococcus faecalis 848 (VRE, Van A); EFcm 800—Enterococcus faecium 800; EFcm 752—Enterococcus faecium 752 (VRE, Van A); SPNE 1195—Streptococcus pneumoniae 1195 (ATCC 49619); SPY 712—Streptococcus pyogenes 712.

[2] = test system: Staphylococcus aureus 100 (ATCC 29213); experiment: MIC, broth microdilution, SA 100; details: Staphylococcus aureus, ATCC29213, class symbols, read-out: MIC SA 100
Procedure: as §1

[3] = test system: Staphylococcus aureus 2012 (VISA); experiment: MIC, broth microdilution, SA 2012; details: read-out: MIC SA 2012
Procedure: as §1

Enterococcus faecium 800 = experiment: MIC, broth microdilution, EFcm 800; details: Enterococcus faecium, 800, class symbols, read-out: MIC E FCM 800
Procedure: as §1

[4] = test system: Enterococcus faecalis 848 (VRE, Van A); experiment: MIC, broth microdilution, EFc 848; details: VRE, Van A, class symbols, read-out: MIC E FC 848
Procedure: as §1

[5] = test system: Streptococcus pyogenes 712; experiment: MIC, broth microdilution, SPY 712; details: Streptococcus pyogenes, 712, class symbols, read-out: MIC S PYO 712
Procedure: as §1

[6] = test system: Staphylococcus aureus 757 (MRSA); experiment: MIC, broth microdilution, SA 757; details: read-out: MIC SA 757
Procedure: as §1

[7] = test system: Streptococcus pneumoniae 1195 (ATCC 49619); experiment: MIC, broth microdilution, SPNE 1195; details: Streptococcus pneumoniae, ATCC49619, class symbols, read-out: MIC S PNE 1195
Procedure: as §1

[8] = test system: Enterococcus faecalis 101 (ATCC 29212); experiment: MIC, broth microdilution, EFc 101; details: Enterococcus faecalis, ATCC29212, class symbols, read-out: MIC E FC 101
Procedure: as §1

[9] = test system: Enterococcus faecium 752 (VRE, Van A); experiment: MIC, broth microdilution, EFcm 752; details: VRE, Van A, class symbols, read-out: MIC E FCM 752
Procedure: as §1

[10] = test system: Staphylococcus epidermidis 831 (MRSE); experiment: MIC, broth microdilution, SE 831; details: Staphylococcus epidermidis, read-out: MIC SE 831
Procedure: as §1

[11] = Table 2, in the presence of 0.002% Polysorbate 80
[12] = Table 2, in the presence of 0.002% Polysorbate 80, class symbols

Structure (SMILES)	MIC [1, 11]	MIC [2, 11]	MIC [3, 12]	MIC (Enterococcus faecium 800; [11])	MIC [4, 11]	MIC [5, 11]	MIC [6, 12]	MIC [7, 11]	MIC [8, 11]	MIC ([1]; Table 1)	MIC ([2]; Table 1)	MIC ([3]; Table 1, class symbols)	MIC (Enterococcus faecium 800; Table 1)	MIC ([4]; Table 1)	MIC ([5]; Table 1)	MIC ([6]; Table 1, class symbols)	MIC ([7]; Table 1)	MIC ([8]; Table 1)	MIC ([9]; Table 1)	MIC ([10]; Table 1, class symbols)	further results
CN[C@H](CC(C)C)C(=O)N[C@H]1C(=O)N[C@@H](CC(=O)NC(=O)c2ccc(OCCOC)cc2)C(=O)N[C@H]2C(=O)N[C@H]3C(=O)N[C@H](C(=O)N[C@H](C(=O)NC4C5CC6CC(C5)CC4C6)c4cc(O)cc(O)c4-c4cc3ccc4O)[C@H](O)c3ccc(c(Cl)c3)Oc3cc2cc(c3O[C@@H]2O[C@H](CO)[C@@H](O)[C@H](O)[C@H]2O[C@H]2C[C@](C)(N)[C@H](O)[C@H](C)O2)Oc2ccc(cc2Cl)[C@H]1O (stereo partly shown) [Compound 65]	0.5 to 1 µg/mL	0.5 to 1 µg/mL	2 to 4 µg/mL	0.01 to 0.5 µg/mL	4 to 8 µg/mL	0.01 to 0.5 µg/mL	0.01 to 0.5 µg/mL	0.01 to 0.5 µg/mL	0.01 to 0.5 µg/mL												MIC [9, 11]: 1 to 2 µg/mL; MIC [10, 12]: 0.01 to 0.5 µg/mL
CCCCOc1ccc(S(=O)(=O)NC(=O)C[C@@H]2NC(=O)[C@H](NC(=O)[C@@H](CC(C)C)NC)[C@H](O)c3ccc(c(Cl)c3)Oc3cc4cc(c3O[C@@H]3O[C@H](CO)[C@@H](O)[C@H](O)[C@H]3O)Oc3ccc(cc3Cl)[C@@H](O)[C@@H]3NC(=O)[C@H](NC(=O)[C@@H]4NC2=O)c2ccc(O)c(c2)-c2c(O)cc(O)cc2[C@@H](C(=O)NC2C4CC5CC(C4)CC2C5)NC3=O)cc1 (stereo partly shown) [Compound 117]										0.01 to 0.5 µg/mL (≈ 0.00605 to 0.303 µM)	0.01 to 0.5 µg/mL (≈ 0.00605 to 0.303 µM)	2 to 4 µg/mL (≈ 1.21 to 2.42 µM)	0.01 to 0.5 µg/mL (≈ 0.00605 to 0.303 µM)	2 to 4 µg/mL (≈ 1.21 to 2.42 µM)	0.01 to 0.5 µg/mL (≈ 0.00605 to 0.303 µM)	0.01 to 0.5 µg/mL (≈ 0.00605 to 0.303 µM)	0.01 to 0.5 µg/mL (≈ 0.00605 to 0.303 µM)	0.01 to 0.5 µg/mL (≈ 0.00605 to 0.303 µM)	1 to 2 µg/mL (≈ 0.605 to 1.21 µM)	0.01 to 0.5 µg/mL (≈ 0.00605 to 0.303 µM)	
CCCCOc1ccc(S(=O)(=O)NC(=O)C[C@@H]2NC(=O)[C@H](NC(=O)[C@@H](CC(C)C)NC)[C@H](O)c3ccc(c(Cl)c3)Oc3cc4cc(c3O[C@@H]3O[C@H](CN)[C@@H](O)[C@H](O)[C@H]3O)Oc3ccc(cc3Cl)[C@@H](O)[C@@H]3NC(=O)[C@H](NC(=O)[C@@H]4NC2=O)c2ccc(O)c(c2)-c2c(O)cc(O)cc2[C@@H](C(=O)NC2C4CC5CC(C4)CC2C5)NC3=O)cc1 (stereo partly shown) [Compound 99]										0.01 to 0.5 µg/mL (≈ 0.00606 to 0.303 µM)	0.01 to 0.5 µg/mL (≈ 0.00606 to 0.303 µM)	0.5 to 1 µg/mL (≈ 0.303 to 0.606 µM)	0.01 to 0.5 µg/mL (≈ 0.00606 to 0.303 µM)	0.5 to 1 µg/mL (≈ 0.303 to 0.606 µM)	0.01 to 0.5 µg/mL (≈ 0.00606 to 0.303 µM)	0.01 to 0.5 µg/mL (≈ 0.00606 to 0.303 µM)	0.5 to 1 µg/mL (≈ 0.303 to 0.606 µM)	0.01 to 0.5 µg/mL (≈ 0.00606 to 0.303 µM)	0.01 to 0.5 µg/mL (≈ 0.00606 to 0.303 µM)	0.01 to 0.5 µg/mL (≈ 0.00606 to 0.303 µM)	
CNCCOc1cc(C(=O)NC(=O)C[C@@H]2NC(=O)[C@H](NC(=O)[C@@H](CC(C)C)NC)[C@H](O)c3ccc(c(Cl)c3)Oc3cc4cc(c3O[C@@H]3O[C@H](CO)[C@@H](O)[C@H](O)[C@H]3O)Oc3ccc(cc3Cl)[C@@H](O)[C@@H]3NC(=O)[C@H](NC(=O)[C@@H]4NC2=O)c2ccc(O)c(c2)-c2c(O)cc(O)cc2[C@@H](C(=O)NC2C4CC5CC(C4)CC2C5)NC3=O)cc(OCCNC)c1OCCNC (stereo partly shown) [Compound 162]	0.5 to 1 µg/mL	2 to 4 µg/mL	2 to 4 µg/mL	0.5 to 1 µg/mL	> 16 µg/mL	0.01 to 0.5 µg/mL	1 to 2 µg/mL	1 to 2 µg/mL	1 to 2 µg/mL												MIC [9, 11]: 8 to 16 µg/mL; MIC [10, 12]: 0.01 to 0.5 µg/mL
CCCCOCC(=O)NC(=O)C[C@@H]1NC(=O)[C@H](NC(=O)[C@@H](CC(C)C)NC)[C@H](O)c2ccc(c(Cl)c2)Oc2cc3cc(c2O[C@@H]2O[C@H](CO)[C@@H](O)[C@H](O)[C@H]2O[C@H]2C[C@](C)(N)[C@H](O)[C@H](C)O2)Oc2ccc(cc2Cl)[C@@H](O)[C@@H]2NC(=O)[C@H](NC(=O)[C@@H]3NC1=O)c1ccc(O)c(c1)-c1c(O)cc(O)cc1[C@@H](C(=O)NC1C3CC4CC(C3)CC1C4)NC2=O (stereo partly shown) [Compound 44]										0.01 to 0.5 µg/mL (≈ 0.00589 to 0.295 µM)	0.5 to 1 µg/mL (≈ 0.295 to 0.589 µM)	2 to 4 µg/mL (≈ 1.18 to 2.36 µM)	0.01 to 0.5 µg/mL (≈ 0.00589 to 0.295 µM)	> 16 µg/mL	0.01 to 0.5 µg/mL (≈ 0.00589 to 0.295 µM)	0.5 to 1 µg/mL (≈ 0.295 to 0.589 µM)	0.01 to 0.5 µg/mL (≈ 0.00589 to 0.295 µM)	0.5 to 1 µg/mL (≈ 0.295 to 0.589 µM)	> 16 µg/mL	0.01 to 0.5 µg/mL (≈ 0.00589 to 0.295 µM)	
CN[C@H](CC(C)C)C(=O)N[C@H]1C(=O)N[C@@H](CC(=O)NC(=O)c2ccc(OCCCN)c(OCCCN)c2)C(=O)N[C@H]2C(=O)N[C@H]3C(=O)N[C@H](C(=O)N[C@H](C(=O)NC4C5CC6CC(C5)CC4C6)c4cc(O)cc(O)c4-c4cc3ccc4O)[C@H](O)c3ccc(c(Cl)c3)Oc3cc2cc(c3O[C@@H]2O[C@H](CO)[C@@H](O)[C@H](O)[C@H]2O[C@H]2C[C@](C)(N)[C@H](O)[C@H](C)O2)Oc2ccc(cc2Cl)[C@H]1O (stereo partly shown) [Compound 166]	0.5 to 1 µg/mL	0.01 to 0.5 µg/mL	1 to 2 µg/mL	0.01 to 0.5 µg/mL	> 16 µg/mL	0.01 to 0.5 µg/mL	0.01 to 0.5 µg/mL	0.01 to 0.5 µg/mL	0.01 to 0.5 µg/mL												MIC [9, 11]: 2 to 4 µg/mL; MIC [10, 12]: 0.01 to 0.5 µg/mL
CCCCCCOc1ccc(S(=O)(=O)NC(=O)C[C@@H]2NC(=O)[C@H](NC(=O)[C@@H](CC(C)C)NC)[C@H](O)c3ccc(c(Cl)c3)Oc3cc4cc(c3O[C@@H]3O[C@H](CO)[C@@H](O)[C@H](O)[C@H]3O)Oc3ccc(cc3Cl)[C@@H](O)[C@@H]3NC(=O)[C@H](NC(=O)[C@@H]4NC2=O)c2ccc(O)c(c2)-c2c(O)cc(O)cc2[C@@H](C(=O)NC2C4CC5CC(C4)CC2C5)NC3=O)cc1 (stereo partly shown) [Compound 118]										1 to 2 µg/mL (≈ 0.595 to 1.19 µM)	2 to 4 µg/mL (≈ 1.19 to 2.38 µM)	> 16 µg/mL	0.01 to 0.5 µg/mL (≈ 0.00595 to 0.298 µM)	2 to 4 µg/mL (≈ 1.19 to 2.38 µM)	0.01 to 0.5 µg/mL (≈ 0.00595 to 0.298 µM)	1 to 2 µg/mL (≈ 0.595 to 1.19 µM)	0.01 to 0.5 µg/mL (≈ 0.00595 to 0.298 µM)	0.5 to 1 µg/mL (≈ 0.298 to 0.595 µM)	1 to 2 µg/mL (≈ 0.595 to 1.19 µM)	1 to 2 µg/mL (≈ 0.595 to 1.19 µM)	
CCOCCOCCOc1ccc(S(=O)(=O)NC(=O)C[C@@H]2NC(=O)[C@H](NC(=O)[C@@H](CC(C)C)NC)[C@H](O)c3ccc(c(Cl)c3)Oc3cc4cc(c3O[C@@H]3O[C@H](CN)[C@@H](O)[C@H](O)[C@H]3O)Oc3ccc(cc3Cl)[C@@H](O)[C@@H]3NC(=O)[C@H](NC(=O)[C@@H]4NC2=O)c2ccc(O)c(c2)-c2c(O)cc(O)cc2[C@@H](C(=O)NC2C4CC5CC(C4)CC2C5)NC3=O)cc1 (stereo partly shown) [Compound 103]										0.01 to 0.5 µg/mL (≈ 0.00585 to 0.292 µM)	0.5 to 1 µg/mL (≈ 0.292 to 0.585 µM)	1 to 2 µg/mL (≈ 0.585 to 1.17 µM)	0.01 to 0.5 µg/mL (≈ 0.00585 to 0.292 µM)	2 to 4 µg/mL (≈ 1.17 to 2.34 µM)	0.01 to 0.5 µg/mL (≈ 0.00585 to 0.292 µM)	0.01 to 0.5 µg/mL (≈ 0.00585 to 0.292 µM)	0.5 to 1 µg/mL (≈ 0.292 to 0.585 µM)	0.01 to 0.5 µg/mL (≈ 0.00585 to 0.292 µM)	1 to 2 µg/mL (≈ 0.585 to 1.17 µM)	0.01 to 0.5 µg/mL (≈ 0.00585 to 0.292 µM)	
